Assay results from ChEMBL document CHEMBL1128258, “[[(Guaninylalkyl)phosphinico]methyl]phosphonic acids. Multisubstrate analogue inhibitors of human erythrocyte purine nucleoside phosphorylase” (J Med Chem, 1995).

Assays:
[1] = target: T1, Purine nucleoside phosphorylase (Homo sapiens, UniProt P00491); test: Inhibition of human erythrocyte purine nucleoside phosphorylase (PNPase) in the presence of zinc chloride
T1 sequence (P00491 whole entry): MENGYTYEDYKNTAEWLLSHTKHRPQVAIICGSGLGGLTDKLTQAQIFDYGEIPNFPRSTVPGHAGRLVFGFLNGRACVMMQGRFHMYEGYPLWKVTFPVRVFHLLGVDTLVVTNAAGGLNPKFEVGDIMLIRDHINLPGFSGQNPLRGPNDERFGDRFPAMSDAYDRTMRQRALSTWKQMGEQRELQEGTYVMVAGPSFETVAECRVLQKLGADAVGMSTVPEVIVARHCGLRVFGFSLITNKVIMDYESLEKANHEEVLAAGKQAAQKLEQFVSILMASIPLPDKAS

[2] = target: T1, Purine nucleoside phosphorylase; test: Inhibition of human erythrocyte purine nucleoside phosphorylase (PNPase) in the presence of ethylenediaminetetraacetic acid (Na2 EDTA)

Row | SMILES | Ki [1] [nM] | Ki [2] [nM]
1 | CCOP(=O)(O)CP(=O)(O)CCCCCn1cnc2c(O)nc(N)nc21 | 1100 | 14000
2 | O=c1[nH]c(=O)c2ncn(CCCCCP(=O)(O)CP(=O)(O)O)c2[nH]1 | 1400 | 270000

Continued, values first:

Row | Ki [1] [nM] | Ki [2] [nM] | SMILES
3 | 100 | 1400 | Nc1nc(O)c2ncn(CCCCP(=O)(O)CP(=O)(O)O)c2n1
4 | 10 | 1100 | Nc1nc(O)c2ncn(CCCCCCCP(=O)(O)CP(=O)(O)O)c2n1
5 | 3.7 | 390 | Nc1nc(O)c2ncn(CCCCCCP(=O)(O)CP(=O)(O)O)c2n1
